Test results reported in the supplement of paper PMC6470124.

What was measured:
[1] = absolute recovery over mixed-bed multilayer solid-phase extraction; higher = better recovery; details: enrichment method: SPE
Procedure, shortened: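 Absolute recovery was calculated by comparing background-corrected response ratios of samples spiked before extraction with those spiked after it, averaged over at least two replicates. Wastewater (100–250 mL, adjusted to pH 6.5 and glass-fibre filtered) or 1000 mL of unfiltered nanopure water was passed through a three-layer mixed-bed cartridge and eluted with basic and then acidic ethyl acetate/methanol. Standards were added before extraction, after extraction, or not at all, at 200 ng/L in water or 1000 ng/L in wastewater, with exceptions for some classes. Internal standards were added afterwards, and samples were analysed by liquid chromatography with high-resolution tandem mass spectrometry in both ionisation modes.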

[2] = LC retention time (Atlantis T3, 5-95% MeOH gradient, 0.1% formic acid); higher = more retained / less polar
Procedure, shortened: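 Retention times were recorded for reference standards on a polar reversed-phase C18 column. The standards were of purity ≥ 95%, and the Atlantis T3 column (3 × 150 mm, 3 μm) was run at 0.3 mL/min with a gradient from 5 to 95% methanol over 17.5 min, both water and methanol containing 0.1% formic acid. Detection used high-resolution tandem mass spectrometry on a QExactive Plus, with positive and negative electrospray in separate runs, and peaks were integrated in TraceFinder (5 ppm tolerance, at least three points per peak) before being checked by hand.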

[3] = absolute recovery over vacuum-assisted evaporative concentration; higher = better recovery; details: enrichment method: VEC
Procedure, shortened: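 After spiking with standards before concentration, after concentration or not at all, at 1000 ng/L for wastewater or 200 ng/L for nanopure and surface water with class- and compound-specific adjustments, samples of 6 mL influent, 15 mL effluent and 60 mL surface or nanopure water were evaporated at 55 °C and 20 mbar to about 0.3 mL. They were brought to 0.4 mL, centrifuged, given internal standards and analysed by LC-HRMS/MS. Absolute recovery, (response ratio pre − unspiked)/(post − unspiked) × 100, used averages of ≥ 2 replicates.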

Row | SMILES | absolute recovery ([1]; nanopure water) [%] | absolute recovery ([1]; wastewater effluent) [%] | LC retention time [2] [min] | absolute recovery ([3]; wastewater effluent) [%] | absolute recovery ([1]; surface water) [%] | absolute recovery ([1]; wastewater influent) [%] | absolute recovery ([3]; wastewater influent) [%]
1 | Cn1c(=O)c2c(ncn2C)n(C)c1=O [Coffein] | 96.4 | 94.5 | 12.5 | 99.7 | – | – | –
2 | COc1cccc2c1C(=O)c1c(O)c3c(c(O)c1C2=O)CC(O)(C(=O)CO)CC3OC1CC([NH3+])C(O)C(C)O1 (configuration not stated) [Doxorubicin] | 40.5 | 28.1 | 15.8 | 38.8 | 19.3 | 53.3 | 45.5
3 | O=C(NCc1ncc(C(F)(F)F)cc1Cl)c1c(Cl)cccc1Cl [Fluopicolide] | 95.7 | 97.2 | 19.6 | 115 | 104 | 93.4 | 109
4 | CCS(=O)(=O)c1cccnc1S(=O)(=O)[N-]C(=O)Nc1nc(OC)cc(OC)n1 [Rimsulfuron] | 127 | 95 | 17.6 | 93.8 | 124 | 95.2 | 85
5 | CC(=O)Nc1ccc(S(=O)(=O)[N-]c2cc(C)on2)cc1 [N4-Acetyl-Sulfamethoxazol] | 99.1 | 90.7 | 14.5 | 108 | 97.9 | 94 | 96
6 | C[N+]1([O-])CCN2c3ccccc3Cc3ccccc3C2C1 (configuration not stated) [Mianserin-N-Oxide] | 93.7 | – | 15.1 | 100 | 103 | 81.2 | 105
7 | COC(=O)C(Cc1ccccc1)NC(=O)C([NH3+])CC(=O)[O-] (configuration not stated) [Aspartam] | 50 | 53.3 | 12.6 | 48 | 41.1 | 58.7 | 36.3
8 | O=C([O-])COc1ccc(Cl)cc1Cl [2-4-D] | 95.6 | 93.5 | 19.3 | 103 | 94 | 91.2 | 106
9 | CC(=O)Nc1nnc(S([NH-])(=O)=O)s1 [Acetazolamide] | 90.8 | 94.2 | 10.5 | 106 | 95.6 | 96.6 | 107
10 | COc1ccc(NC(=O)N(C)C)cc1Cl [Metoxuron] | 104 | 90.2 | 16 | 104 | 92.8 | 129 | 98.1
11 | Cn1nnc2ccccc21 [1-Methyl-Benzotriazol] | 89.4 | 88.8 | 14 | 83.9 | 93.1 | 103 | 82.1
12 | CCCCCOC(=O)[N-]c1nc(=O)n(C2OC(C)C(O)C2O)cc1F (configuration not stated) [Capecitabin] | 93.3 | 90.8 | 17.7 | 108 | 93.1 | 96.3 | 101
13 | COC=C(C(=O)[O-])c1ccccc1Oc1cc(Oc2ccccc2C#N)ncn1 [Azoxystrobin-acid] | 96.4 | 93.5 | 18 | 101 | 92.6 | 99.1 | 97.7
14 | CCN(C)C(=O)Oc1cccc(C(C)[NH+](C)C)c1 (configuration not stated) [Rivastigmin] | 90.4 | 90.6 | 12.2 | 102 | 94.7 | 98.8 | 105
15 | CSc1nc(NC2CC2)nc(NC(C)(C)C)n1 [Irgarol] | 101 | 97 | 19 | 98 | 98.8 | 91.2 | 95.5
16 | C#CC[NH+](C)Cc1ccccc1 [N-Methyl-N-propargylbenzylamine] | 62.3 | 62.4 | 11.4 | 73.6 | 66.9 | 78.1 | 72.1
17 | NS(=O)(=O)c1cc2c(cc1Cl)NCNS2(=O)=O [Hydrochlorothiazid] | 96.7 | 89.1 | 10.2 | 104 | 98.2 | 91.7 | 100
18 | COc1ccc2c(c1)c(CC(=O)OCC(=O)[O-])c(C)n2C(=O)c1ccc(Cl)cc1 [Acemetacin] | 76.1 | 75.6 | 21.4 | 97.8 | 59.7 | 116 | 99.4
19 | CCOC(=O)C1CC(=O)C(=C([O-])C2CC2)C(=O)C1 (configuration not stated) [Trinexapac-ethyl] | 93.6 | 90.1 | 18.8 | 102 | 93.1 | 93.2 | 93.4
20 | CC1COC(=O)c2cc3c(cc21)C(C)(C)C(C)C3(C)C (configuration not stated) [Galaxolidon] | 103 | 86.1 | 22.2 | 61.8 | 104 | 108 | 63.2
21 | CCOC(=O)NCCOc1ccc(Oc2ccccc2)cc1 [Fenoxycarb] | 105 | 113 | 20.4 | 127 | 127 | 74.2 | 120
22 | CC(=NC#N)N(C)Cc1ccc(Cl)nc1 [Acetamiprid] | 110 | 89 | 14.3 | 102 | 93.8 | – | 90.8
23 | CCC(C)C(=O)OC1CC(O)C=C2C=CC(C)C(CCC(O)CC(O)CC(=O)[O-])C21 (configuration not stated) [Pravastatin] | 92.4 | 94 | 18.4 | 99.2 | 91.2 | 95.1 | 103
24 | CON=C(C1=NOCCO1)c1ccccc1Oc1ncnc(Oc2ccccc2Cl)c1F [Fluoxastrobin] | 97.5 | 90.4 | 19.8 | 94.1 | 80.2 | 83 | 112
25 | NC(=O)N1c2ccccc2CC(=O)c2ccccc21 [Oxcarbazepin] | 84.4 | 82.7 | 16.4 | 87.8 | 84.7 | 83.7 | 78.5
26 | CCCCCCCCCC[N+](C)(C)[O-] [NN-Dimethyldicylamin-N-oxid] | 85.4 | 93.4 | 16.9 | 103 | 110 | 58.3 | 110
